Counter-ions that a name gives are not always drawn.
What was measured:
recombinant human MetAP2 = target: T1, recombinant human MetAP2 (Homo sapiens, UniProt P50579); assay: Recombinant human MetAP2 enzyme inhibition assay (MAS peptide / amino acid oxidase / Amplex Ultrared readout); format: biochemical; details: Flag tagged human recombinant MetAP2, 25 minutes at 25° C.
T1 construct: Flag; made in house
Experimental: Compounds are tested for their capacity to inhibit recombinant human MetAP2 activity using the following assay.
Flag tagged Human recombinant MetAP2 expressed and isolated for use as the enzyme source. 10 mM stock solutions of compounds were prepared in 100% DMSO and further diluted in 100% DMSO required concentration to 1 mM stocks. The stock compound solutions and DMSO vehicle controls were diluted to target final compound concentrations using assay buffer to a final concentration of 50 mM HEPES containing 100 mM NaCl, pH adjusted to 7.5. The MAS peptide was formulated to a 7.5 mM stock in distilled water and prior to use further diluted 1:4. […] 40 μl of enzyme was mixed with 100 μl of MnCl2 then further diluted in assay buffer to a final concentration of 16 μg/ml. To test for compound effect on MetAP2 enzyme activity, 5 μl of test compound, 10 μl of MAS substrate/amino acid oxidase mixture, 10 μl of MetAP2 was added to test wells in a 384 well black plate with blank wells containing no enzyme, replaced with 10 μl of assay buffer. All compounds were tested in duplicate on two occasions on the same day.
The plate was sealed with a TopSeal A cover and mixed briefly on an orbital mixer at 900 rpm. The plate was incubated for a further 25 minutes at 25° C. A 5× stock of Amplex buffer was prepared (0.25 M sodium phosphate, pH 7.4) and stored at 4° C. […] Horse radish peroxidase was diluted in […] of Amplex buffer, 100 μl of this was combined with 50 μl of Amplex Ultrared in […] of 1× Amplex buffer to generate sufficient detection reagent for a 384 well plate. 25 μl detection reagent was added to each well of the test plate, which was re-sealed and mixed briefly on an orbital shaker. The plate was transferred to an Envision Multi-label reader and RFU measured corresponding to excitation 531 nm and emission 595 nm. At the end of the MetAP2 incubation 25 μl Amplex/HRP mixture per well was added and the plate read plate on a plate reader.

[1] = tested on: Diet Induced Obese (DIO) C57BL/6 mice; assay: 10 day DIO mouse model, weight loss vs. vehicle; format: in vivo; details: 240 h; for inhibition in vivo at 0.3 mg/kg: 0.3 mpk sc once a day for 10 days; for inhibition in vivo at 1 mg/kg: 1.0 mpk sc once a day for 10 days
Text: The objective of this study design was to investigate the efficacy of disclosed compounds in a 10 day DIO mouse model. Effects on body weight, food intake, hematology and blood chemistry were the primary readouts of this study design. Male, Diet Induced Obese (DIO) C57BL/6 mice, 19-21 weeks of age (13-15 weeks on high fat diet) were ordered from a certified vendor and upon receipt were housed on irradiated corncob bedding in micro-isolator cages on a 12-hour light-dark cycle (0700-1900) at 68-74° F. and 30-70% humidity. Mice were fed Research Diets D12492 (60% Kcal fat, 20% Kcal carbohydrate and 20% protein) and provided water ad libitum. DIO mice were received and housed in the facility for approximately two weeks prior to the start of test article administration. On Day −4 or −3, mice were randomized into study groups based on body weight and body weights were continued to be recorded daily for the duration of the study. Daily food intake was assessed starting on Study Day −2 by weighing of the food with hopper together to avoid loss of food in transfer.
(§1) Compounds were formulated into a 100% DMSO stock (at 9 mg/mL) prior to the start, and further diluted into the target working concentration using the vehicle of 10% DMSO in water. Prior to test article administration, starting on Day −3 a dosing acclimation occurred with all animals receiving a subcutaneous injection of vehicle (10% DMSO) only for 3 days. Starting on Day 1, test compounds or vehicle were administered based on individual body weight, subcutaneously, once a day for 10 days. All mice were sacrificed on Day 11, 24 hours following the final dosing on Day 10. After sacrifice, whole blood was collected and analyzed for hematology and blood chemistry parameters.
(§2) Compounds were tested for weight loss vs. vehicle at 0.3 and 1.0 mpk sc (mg per kg animal weight delivered subcutaneously), and the results are shown in Table 2 below.

[2] = tested on: rat DIO model (Sprague Dawley rats on 45% High Fat diet); assay: 11 day rat DIO model, weight loss vs. vehicle; format: in vivo; details: for Rat @ 0.3 mpk sc (%) weight loss vs. vehicle: 0.3 mpk sc once a day for 11 days; for Rat @ 1.0 mpk sc (%) weight loss vs. vehicle: 1.0 mpk sc once a day for 11 days
Text: The objective of this study design is to investigate the efficacy of disclosed compounds in an 11 day rat DIO model used to screen compounds for pharmacologic efficacy on endpoints related to obesity and metabolism. Effects on body weight, food intake, hematology and blood chemistries were the primary readouts of this study design. Male Sprague Dawley rats, approximately 8 weeks of age, were ordered from a certified vendor and housed on irradiated corncob bedding in micro-isolator cages, on a 12-hour light-dark cycle (0700-1900) at 68-74° F. and 30-70% humidity. Rats were fed Research Diets D12451 (45% High Fat) and provided water ad libitum. Rats were received and housed in the facility for at least two or three weeks prior to start of test article administration. On Day −4 or −3, rats were randomized into study groups based on body weight and body weights were continued to be recorded daily for the duration of the study. Daily food intake was assessed starting on Study Day −2 by weighing the hopper including the food to avoid loss of food in transfer.
as §1, with “for 11” for “for 10”, “All animals” for “All mice”, “11, approximately 2” for “11, 24”, “Day 11.” for “Day 10.”
as §2

T1 sequence (P50579 whole entry): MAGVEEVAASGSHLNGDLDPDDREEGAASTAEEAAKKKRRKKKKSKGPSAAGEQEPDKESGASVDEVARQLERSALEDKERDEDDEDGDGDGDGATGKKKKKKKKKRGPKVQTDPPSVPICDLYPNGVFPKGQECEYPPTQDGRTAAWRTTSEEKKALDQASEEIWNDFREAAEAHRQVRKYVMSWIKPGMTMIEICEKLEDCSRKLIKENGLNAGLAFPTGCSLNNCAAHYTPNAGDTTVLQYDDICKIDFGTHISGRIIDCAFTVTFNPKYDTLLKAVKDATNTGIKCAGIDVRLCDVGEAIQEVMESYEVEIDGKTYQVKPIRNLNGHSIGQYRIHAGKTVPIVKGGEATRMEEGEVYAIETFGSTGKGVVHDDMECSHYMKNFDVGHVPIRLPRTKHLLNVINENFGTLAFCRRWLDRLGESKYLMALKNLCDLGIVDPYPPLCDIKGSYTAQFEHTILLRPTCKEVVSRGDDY

SMILES | IC50 (recombinant human MetAP2) [nM] | inhibition in vivo at 0.3 mg/kg [1] [%] | Rat @ 0.3 mpk sc (%) weight loss vs. vehicle [2] [%] | Rat @ 1.0 mpk sc (%) weight loss vs. vehicle [2] [%] | inhibition in vivo at 1 mg/kg [1] [%]
CO[C@@H]1[C@H](OC(=O)N[C@H](c2cn(C[C@@H]3CCN(C)C3)cn2)C(C)C)CC[C@]2(CO2)[C@H]1[C@@]1(C)O[C@@H]1CC=C(C)C [Example 13, (3R,4S,5S,6R)-5-methoxy-4-((2R,3R)-2-methyl-3-(3-methylbut-2-enyl)oxiran-2-yl)-1-oxaspiro[2.5]octan-6-yl (S)-2-methyl-1-(1-(((R)-1-methylpyrrolidin-3-yl)methyl)-1H-imidazol-4-yl)propylcarbamate] | 50 to 500 | 8.2 | 11.5 | 22 | 
CO[C@@H]1[C@H](OC(=O)N[C@H](c2cn(C[C@H]3CCN(C)C3)cn2)C(C)C)CC[C@]2(CO2)[C@H]1[C@@]1(C)O[C@@H]1CC=C(C)C [Example 15, (3R,4S,5S,6R)-5-methoxy-4-((2R,3R)-2-methyl-3-(3-methylbut-2-en-1-yl)oxiran-2-yl)-1-oxaspiro[2.5]octan-6-yl ((S)-2-methyl-1-(1-(((S)-1-methylpyrrolidin-3-yl)methyl)-1H-imidazol-4-yl)propyl)carbamate] | < 50 | 10.8 | 10.6 | 16.4 | 8.4
CO[C@@H]1[C@H](OC(=O)N[C@H](Cc2nc(=O)o[nH]2)C(C)C)CC[C@]2(CO2)[C@H]1[C@@]1(C)O[C@@H]1CC=C(C)C [Example 30, (3R,4S,5S,6R)-5-methoxy-4-((2R,3R)-2-methyl-3-(3-methylbut-2-enyl)oxiran-2-yl)-1-oxaspiro[2.5]octan-6-yl (R)-3-methyl-1-(5-oxo-4,5-dihydro-1,2,4-oxadiazol-3-yl)butan-2-ylcarbamate] | 50 to 500 | 1.4 | 0.7 | −0.4 | 14.1
CO[C@@H]1[C@H](OC(=O)N[C@H](c2cn(C[C@H]3CCCN3C)cn2)C(C)C)CC[C@]2(CO2)[C@H]1[C@@]1(C)O[C@@H]1CC=C(C)C [Example 16, (3R,4S,5S,6R)-5-methoxy-4-((2R,3R)-2-methyl-3-(3-methylbut-2-enyl)oxiran-2-yl)-1-oxaspiro[2.5]octan-6-yl (S)-2-methyl-1-(1-(((R)-1-methylpyrrolidin-2-yl)methyl)-1H-imidazol-4-yl)propylcarbamate] | 50 to 500 | 6.6 | 2.8 |  | 
CO[C@@H]1[C@H](OC(=O)N[C@@H](C)Cc2noc(=O)[nH]2)CC[C@]2(CO2)[C@H]1[C@@]1(C)O[C@@H]1CC=C(C)C [Example 28, (3R,4S,5S,6R)-5-methoxy-4-((2R,3R)-2-methyl-3-(3-methylbut-2-en-1-yl)oxiran-2-yl)-1-oxaspiro[2.5]octan-6-yl ((S)-1-(5-oxo-4,5-dihydro-1,2,4-oxadiazol-3-yl)propan-2-yl)carbamate] | < 50 | -2.3 | −1.4 |  | 4.2
CNc1nnc([C@@H](NC(=O)O[C@@H]2CC[C@]3(CO3)[C@@H]([C@@]3(C)O[C@@H]3CC=C(C)C)[C@@H]2OC)C(C)C)o1 [Example 2, (3R,5S,6R)-5-methoxy-4-((2R,3R)-2-methyl-3-(3-methylbut-2-enyl)oxiran-2-yl)-1-oxaspiro[2.5]octan-6-yl (S)-2-methyl-1-(5-(methylamino)-1,3,4-oxadiazol-2-yl)propylcarbamate] | < 50 | 5.4 | 0.6 | 0.9 | 4.6
CO[C@@H]1[C@H](OC(=O)NCC(C)(C)c2cn(C[C@H]3CCCN3C)cn2)CC[C@]2(CO2)[C@H]1[C@@]1(C)O[C@@H]1CC=C(C)C [Example 38, (3R,4S,5S,6R)-5-methoxy-4-((2R,3R)-2-methyl-3-(3-methylbut-2-en-1-yl)oxiran-2-yl)-1-oxaspiro[2.5]octan-6-yl (2-methyl-2-(1-(((R)-1-methylpyrrolidin-2-yl)methyl)-1H-imidazol-4-yl)propyl)carbamate] | 50 to 500 | 5 | −1.7 |  | 5.5
CO[C@@H]1[C@H](OC(=O)N[C@H](c2nccn2C[C@@H]2CCCN2C)C(C)C)CC[C@]2(CO2)[C@H]1[C@@]1(C)O[C@@H]1CC=C(C)C [Example 6, (3R,4S,5S,6R)-5-methoxy-4-((2R,3R)-2-methyl-3-(3-methylbut-2-enyl)oxiran-2-yl)-1-oxaspiro[2.5]octan-6-yl (S)-2-methyl-1-(1-(((S)-1-methylpyrrolidin-2-yl)methyl)-1H-imidazol-2-yl)propylcarbamate formate] | 50 to 500 | 6.5 | 0.1 | 2.1 | 
CO[C@@H]1[C@H](OC(=O)N[C@H](c2ccc(N3CCOCC3)nc2)C(C)C)CC[C@]2(CO2)[C@H]1[C@@]1(C)O[C@@H]1CC=C(C)C [Example 26, (3R,4S,5S,6R)-5-methoxy-4-((2R,3R)-2-methyl-3-(3-methylbut-2-enyl)oxiran-2-yl)-1-oxaspiro[2.5]octan-6-yl (S)-2-methyl-1-(6-morpholinopyridin-3-yl)propylcarbamate] | 50 to 500 | 7.2 |  |  | 
CO[C@@H]1[C@H](OC(=O)N[C@H](c2cn(CCN3CCOCC3)cn2)C(C)C)CC[C@]2(CO2)[C@H]1[C@@]1(C)O[C@@H]1CC=C(C)C [Example 17, (3R,4S,5S,6R)-5-methoxy-4-((2R,3R)-2-methyl-3-(3-methylbut-2-enyl)oxiran-2-yl)-1-oxaspiro[2.5]octan-6-yl (S)-2-methyl-1-(1-(2-morpholinoethyl)-1H-imidazol-4-yl)propylcarbamate] | 50 to 500 | 3.2 |  |  | 
CNc1nnc(C[C@@H](NC(=O)O[C@@H]2CC[C@]3(CO3)[C@@H]([C@@]3(C)O[C@@H]3CC=C(C)C)[C@@H]2OC)C(C)C)s1 [Example 35, (3R,4S,5S,6R)-5-methoxy-4-((2R,3R)-2-methyl-3-(3-methylbut-2-enyl)oxiran-2-yl)-1-oxaspiro[2.5]octan-6-yl (R)-3-methyl-1-(5-(methylamino)-1,3,4-thiadiazol-2-yl)butan-2-ylcarbamate] | 50 to 500 |  |  |  | 1

— patent US20190169181A1, “FUMAGILLOL COMPOUNDS AND METHODS OF MAKING AND USING SAME” (Zafgen, Inc., priority 2016, published 2019)
